This experiment relates to Mouse histone deacetylase. Briefly: Assay of histone deacetylase activity ([3H] acetylated histone, crude histone deacetylase from FM3A cells). The note with it: crude histone deacetylase fraction from FM3A cells, [3H] acetylated histone substrate, 37° C. for 10 min. Format: biochemical. The protocol: The histone deacetylase inhibitory activity of the FR135313 substance synthesized in Production Example 1 was examined.
Mouse breast cancer FM3A was supplied by Dr. Dai Ayusawa of Medical Department, Yokohama City University. This cell was subcultured in an ES medium containing 2% FBS (Flow Laboratories, hereinafter to be referred to as ES medium) at 37° C., in 5% CO2.
The [^3H] acetylated histone to be the substrate of histone deacetylase was prepared by culturing 1×10^8 cells of FM3A cell (suspended in 50 ml of ES medium) in the presence of 0.5 mCi/ml [^3H] sodium acetate and 5 mM sodium butyrate at 37° C. in 5% CO2 for 30 min, and immediately extracting histone fraction from the treated cells according to the following method. The specific radioactivity was 0.45 μCi/mg histone.
Extraction of histone protein from culture cell was conducted according to the method of Yoshida et al. (M. Yoshida et al., J. Biol. Chem. 265, 17174–17179 (1990)). […]
4 μl of [^3H] acetylated histone (2500 cpm/5 μg) and 96 μl of crude histone deacetylase fraction were admixed. […] The reaction was terminated by the addition of 10 μl of concentrated hydrochloric acid, and released [^3H] acetic acid was extracted with 1 ml of ethyl acetate, from which 0.9 ml was added to 5 ml of toluene scintillation solution and the radioactivity was measured.

For `C/C=C1\NC(=O)[C@@H](CS)NC(=O)[C@@H](C(C)C)NC(=O)C[C@@H](/C=C/CCS)OC(=O)[C@H](C(C)C)NC1=O` [FR135313 substance], the “histone deacetylase inhibitory activity IC50” value is reported as “not more than 1 ng/ml”.
